Results as given in patent publication US8563714B2, “Bridged spiro [2.4] heptane derivatives as ALX receptor and/or FPRL2 agonists” (Actelion Pharmaceuticals Ltd., priority 2009, dated 2013).

Assays:
human FPRL2 = target: T1, human FPRL2 (Homo sapiens, UniProt P25089); assay: Intracellular calcium measurements (FLIPR), agonistic activity in HEK293-hFPRL2-Gα16 cells; format: cell-based; conditions: Fluo-4 calcium FLIPR, normalized to GLY14-Humanin 100 nM
T1 construct: expressed in transfected cells; host or cells: HEK293 (HEK293-hFPRL2-Gα16)
T1 sequence (P25089 1-353): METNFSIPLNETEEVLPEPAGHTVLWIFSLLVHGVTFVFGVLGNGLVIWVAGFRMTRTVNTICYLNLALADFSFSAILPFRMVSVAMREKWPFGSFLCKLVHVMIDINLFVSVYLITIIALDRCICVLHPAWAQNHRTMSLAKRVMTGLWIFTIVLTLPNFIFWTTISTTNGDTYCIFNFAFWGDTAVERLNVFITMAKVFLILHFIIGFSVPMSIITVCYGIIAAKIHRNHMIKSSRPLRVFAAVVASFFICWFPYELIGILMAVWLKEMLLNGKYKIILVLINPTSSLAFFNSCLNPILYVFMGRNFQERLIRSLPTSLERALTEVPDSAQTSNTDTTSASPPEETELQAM
Outline: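 Peak values after baseline subtraction are expressed relative to 100 nM Gly14-Humanin; compounds diluted in assay buffer from 10 mM DMSO stocks.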

human ALX receptor = target: T2, human ALX receptor (Homo sapiens, UniProt P25090); assay: Intracellular calcium measurements (FLIPR), agonistic activity in HEK293-hALXR-Gα16 cells; format: cell-based; conditions: Fluo-4 calcium FLIPR, normalized to WKYMVm 10 nM
T2 construct: expressed in transfected cells; host or cells: HEK293 (HEK293-hALXR-Gα16)
T2 sequence (P25090 1-351): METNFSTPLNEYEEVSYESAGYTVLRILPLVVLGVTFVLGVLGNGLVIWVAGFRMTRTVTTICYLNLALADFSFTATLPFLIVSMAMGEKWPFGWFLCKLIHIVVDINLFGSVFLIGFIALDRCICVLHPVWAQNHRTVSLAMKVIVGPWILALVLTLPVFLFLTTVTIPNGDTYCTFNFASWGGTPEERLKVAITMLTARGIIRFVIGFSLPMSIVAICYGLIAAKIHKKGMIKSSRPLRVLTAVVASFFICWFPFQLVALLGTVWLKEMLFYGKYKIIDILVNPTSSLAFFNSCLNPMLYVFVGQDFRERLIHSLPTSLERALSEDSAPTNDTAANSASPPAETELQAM
Outline: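 HEK293 cells expressing hALXR and Gα16 were loaded with 1 μM Fluo-4 AM and 20 mM HEPES for 60 min at 37°C, then exposed to serially diluted compound. FLIPR fluorescence was read at ex 488/em 540 nm. Baseline-subtracted peak responses were normalized to 10 nM WKYMVm.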

Row | Structure (SMILES) | EC50 (human FPRL2) [nM] | EC50 (human ALX receptor) [nM]
1 | O=C(NCCCCN1CCCC1)[C@H]1[C@H](C(=O)NCc2ccc(Br)cc2)[C@@H]2C=C[C@H]1C21CC1 [Example 286, (5R)—N^5-(4-Bromophenyl-methyl)-(6R)—N^6-(4-pyrrolidino-butyl)-(4S,7R)-[4,7-ethenylene-spiro[2.4]heptane]-5,6-dicarboxamide] | 32 | 32
2 | COc1ccc(NC(=O)[C@H]2[C@H](C(=O)NCCC(=O)O)[C@H]3C=C[C@@H]2C32CC2)cc1 [Example 287, (5R)—N^5-(4-Methoxyphenyl)-(6R)—N^6-(3-hydroxyl-3-oxopropyl)-(4S,7R)-[4,7-ethenylene-spiro[2.4]heptane]-5,6-dicarboxamide] | > 25000 | 516
3 | O=C(NCCCCN1CCCC1)[C@H]1[C@H](C(=O)Nc2ccc(Br)c(F)c2)[C@@H]2C=C[C@H]1C21CC1 [Example 288, (5R)—N^5-(4-Bromo-3-fluorophenyl)-(6R)—N^6-(4-pyrrolidino-butyl)-(4S,7R)-[4,7-ethenylene-spiro[2.4]heptane]-5,6-dicarboxamide] | 33 | 0.87
4 | O=C(NCCCCN1CCCC1)[C@H]1[C@H](C(=O)Nc2ccc(Cl)nc2)[C@@H]2C=C[C@H]1C21CC1 [Example 289, (5R)—N^5-(2-Chloro-pyridin-5-yl)-(6R)—N^6-(4-pyrrolidino-butyl)-(4S,7R)-[4,7-ethenylene-spiro[2.4]heptane]-5,6-dicarboxamide] | 214 | 1.6
5 | COc1ccc(NC(=O)C2C(C(=O)NCCC(N)=O)C3C=CC2C32CC2)cc1 [Example 290, (5R)—N^5-(4-Methoxyphenyl)-(6R)—N^6-(3-amino-3-oxopropyl)-(4S,7R)-[4,7-ethenylene-spiro[2.4]heptane]-5,6-dicarboxamide] | 1440 | 32
6 | NC(=O)CCNC(=O)[C@H]1[C@H](C(=O)NCc2ccc(Br)cc2)[C@@H]2CC[C@H]1C21CC1 [Example 291, (5R)—N^5-(4-Bromophenyl-methyl)-(6R)—N^6-(3-amino-3-oxopropyl)-(4S,7R)-[4,7-ethylene-spiro[2.4]heptane]-5,6-dicarboxamide] | > 25000 | 113
7 | NC(=O)CCNC(=O)[C@H]1[C@H](C(=O)NCc2ccc(Br)cc2F)[C@@H]2CC[C@H]1C21CC1 [Example 292, (5R)—N^5-(4-Bromo-2-fluorophenyl-methyl)-(6R)—N^6-(3-amino-3-oxopropyl)-(4S,7R)-[4,7-ethylene-spiro[2.4]heptane]-5,6-dicarboxamide] | 661 | 71
8 | COc1ccc(NC(=O)[C@H]2[C@H](C(=O)NCCC(N)=O)[C@H]3CC[C@@H]2C32CC2)cc1 [Example 293, (5R)—N^5-(4-Methoxyphenyl)-(6R)—N^6-(3-amino-3-oxopropyl)-(4S,7R)-[4,7-ethylene-spiro[2.4]heptane]-5,6-dicarboxamide] | 2370 | 59
9 | O=C(NCCCCN1CCCC1)[C@H]1[C@H](C(=O)Nc2ccc(Br)cn2)[C@@H]2C=C[C@H]1C21CC1 [Example 294, (5R)—N^5-(5-Bromo-pyridin-2-yl)-(6R)—N^6-(4-pyrrolidino-butyl)-(4S,7R)-[4,7-ethenylene-spiro[2.4]heptane]-5,6-dicarboxamide] | 187 | 2.9
10 | O=C(NCCCCN1CCCC1)[C@H]1[C@H](C(=O)Nc2ccc(Br)cc2F)[C@@H]2C=C[C@H]1C21CC1 [Example 295, (5R)—N^5-(4-Bromo-2-fluorophenyl)-(6R)—N^6-(4-pyrrolidino-butyl)-(4S,7R)-[4,7-ethenylene-spiro[2.4]heptane]-5,6-dicarboxamide] | 116 | 1.3
11 | Cc1cc(Br)ccc1NC(=O)[C@H]1[C@H](C(=O)NCCCCN2CCCC2)[C@H]2C=C[C@@H]1C21CC1 [Example 296, (5R)—N^5-(4-Bromo-2-methylphenyl)-(6R)—N^6-(4-pyrrolidino-butyl)-(4S,7R)-[4,7-ethenylene-spiro[2.4]heptane]-5,6-dicarboxamide] | 193 | 275
12 | O=C(NCCCCN1CCCC1)[C@H]1[C@H](C(=O)Nc2ccc(Br)c(Cl)c2)[C@@H]2C=C[C@H]1C21CC1 [Example 297, (5R)—N^5-(4-Bromo-3-chlorophenyl)-(6R)—N^6-(4-pyrrolidino-butyl)-(4S,7R)-[4,7-ethenylene-spiro[2.4]heptane]-5,6-dicarboxamide] | 28 | 367
13 | NC(=O)CCNC(=O)[C@H]1[C@H](C(=O)Nc2ccc(Cl)nc2)[C@@H]2CC[C@H]1C21CC1 [Example 298, (5R)—N^5-(2-Chloro-pyridin-5-yl)-(6R)—N^6-(3-amino-3-oxopropyl)-(4S,7R)-[4,7-ethylene-spiro[2.4]heptane]-5,6-dicarboxamide] | 4070 | 24

Now from value to compound:

Row | EC50 (human FPRL2) [nM] | EC50 (human ALX receptor) [nM] | Structure (SMILES)
14 | 208 | 213 | O=C(NCCCCN1CCCC1)[C@H]1[C@H](C(=O)NCc2cnc(Br)s2)[C@@H]2C=C[C@H]1C21CC1 [Example 312, (5R)—N^5-(2-Bromo-thiazol-5-yl-methyl)-(6R)—N^6-(4-pyrrolidino-butyl)-(4S,7R)-[4,7-ethenylene-spiro[2.4]heptane]-5,6-dicarboxamide]
15 | > 25000 | 330 | Cc1ccc(NC(=O)[C@H]2[C@H](C(=O)NCCC(N)=O)[C@H]3C=C[C@@H]2C32CC2)nc1 [Example 313, (5R)—N^5-(5-Methyl-pyridin-2-yl)-(6R)—N^6-(3-amino-3-oxopropyl)-(4S,7R)-[4,7-ethenylene-spiro[2.4]heptane]-5,6-dicarboxamide]
16 | 204 | 103 | O=C(NCCCCN1CCCC1)[C@H]1[C@H](C(=O)Nc2cc(F)c(Br)cc2F)[C@@H]2C=C[C@H]1C21CC1 [Example 314, (5R)—N^5-(4-Bromo-2,5-difluorophenyl)-(6R)—N^6-(4-pyrrolidino-butyl)-(4S,7R)-[4,7-ethenylene-spiro[2.4]heptane]-5,6-dicarboxamide]
17 | 296 | 9.4 | O=C(NCCCCN1CCCC1)[C@H]1[C@H](C(=O)Nc2c(F)cc(Br)cc2F)[C@@H]2C=C[C@H]1C21CC1 [Example 315, (5R)—N^5-(4-Bromo-2,6-difluorophenyl)-(6R)—N^6-(4-pyrrolidino-butyl)-(4S,7R)-[4,7-ethenylene-spiro[2.4]heptane]-5,6-dicarboxamide]
18 | 122 | 236 | O=C(NCCCCN1CCCC1)[C@H]1[C@H](C(=O)Nc2ccc(Br)c(F)c2F)[C@@H]2C=C[C@H]1C21CC1 [Example 316, (5R)—N^5-(4-Bromo-2,3-difluorophenyl)-(6R)—N^6-(4-pyrrolidino-butyl)-(4S,7R)-[4,7-ethenylene-spiro[2.4]heptane]-5,6-dicarboxamide]
19 | 44 | 28 | O=C(NCCCCN1CCCC1)[C@H]1[C@H](C(=O)NCc2c(F)cc(Br)cc2F)[C@@H]2C=C[C@H]1C21CC1 [Example 317, (5R)—N^5-(4-Bromo-2,6-difluorophenyl-methyl)-(6R)—N^6-(4-pyrrolidin-1-yl-butyl)-(4S,7R)-[4,7-ethenylene-spiro[2.4]heptane]-5,6-dicarboxamide]
20 | 18 | 13 | O=C(NCCCCN1CCCC1)[C@H]1[C@H](C(=O)NCc2ccc(Br)cc2F)[C@@H]2CC[C@H]1C21CC1 [Example 318, (5R)—N^5-(4-Bromo-2-fluorophenyl-methyl)-(6R)—N^6-(4-pyrrolidino-butyl)-(4S,7R)-[4,7-ethylene-spiro[2.4]heptane]-5,6-dicarboxamide]
21 | 331 | 55 | NCCCCCNC(=O)[C@H]1[C@H](C(=O)NCc2ccc(Br)cc2F)[C@@H]2C=C[C@H]1C21CC1 [Example 319, (5R)—N^5-(4-Bromo-2-fluorophenyl-methyl)-(6R)—N^6-(5-amino-pentyl)-(4S,7R)-[4,7-ethenylene-spiro[2.4]heptane]-5,6-dicarboxamide]
22 | 472 | 52 | NCCCCNC(=O)[C@H]1[C@H](C(=O)NCc2ccc(Br)cc2F)[C@@H]2C=C[C@H]1C21CC1 [Example 320, (5R)—N^5-(4-Bromo-2-fluorophenyl-methyl)-(6R)—N^6-(4-amino-butyl)-(4S,7R)-[4,7-ethenylene-spiro[2.4]heptane]-5,6-dicarboxamide]
23 | 15 | 117 | O=C(NCCCCN1CCCC1)[C@H]1[C@H](C(=O)NCc2ccc(Br)c(F)c2)[C@@H]2C=C[C@H]1C21CC1 [Example 321, (5R)—N^5-(4-Bromo-3-fluorophenyl-methyl)-(6R)—N^6-(4-pyrrolidino-butyl)-(4S,7R)-[4,7-ethenylene-spiro[2.4]heptane]-5,6-dicarboxamide]
